This is an account of results in US20140248291A1, “Modulation of Cellular Migration” (THE UAB RESEARCH FOUNDATION, priority 2011, published 2014).

Molecules are shown by their SMILES.

In one test the test system is D54-MG-GFP cells. The test can be described thus: time-lapse motility assay in BK concentration gradient, D54-MG-GFP. It is filed as cell-based, human. Conditions: for cells moved towards increasing BK concentration: BK gradient in presence of antagonist, cells moving in random fashion; for directionality of movement: antagonist in addition to BK.
The target in the next test is T1, B2R (Homo sapiens, UniProt P30411).
T1 construct: endogenous in cells; host or cells: D54-MG / D54-MG-GFP human glioma cells
T1 sequence (P30411 1-391): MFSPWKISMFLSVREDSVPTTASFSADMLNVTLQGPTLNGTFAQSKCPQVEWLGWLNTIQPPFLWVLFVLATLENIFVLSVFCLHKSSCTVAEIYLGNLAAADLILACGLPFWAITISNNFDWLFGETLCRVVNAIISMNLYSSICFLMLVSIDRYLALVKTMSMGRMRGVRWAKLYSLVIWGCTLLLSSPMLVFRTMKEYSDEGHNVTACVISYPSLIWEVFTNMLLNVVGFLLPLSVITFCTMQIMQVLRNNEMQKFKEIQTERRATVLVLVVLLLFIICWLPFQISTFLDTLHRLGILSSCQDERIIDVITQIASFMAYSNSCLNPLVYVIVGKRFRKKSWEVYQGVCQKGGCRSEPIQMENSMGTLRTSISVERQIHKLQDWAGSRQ
Put plainly: calcium imaging (Fura-2), BK response with B2R antagonists. It is filed as cell-based. Conditions: BK in presence of the B2R antagonist; for average peak of Ca2+ response: p<0.001 vs BK. How it is done: D54-MG cells were plated on 35-mm glass bottom dishes (MatTek, Corp., Ashland, Mass.) at ˜100×10^3 per dish and cultured for 2 days. pTRIPZ transfected cells, after stable selection, were plated at a density of ˜20×10^3 per dish and treated with […] doxycycline for 4 to 5 days to allow for sufficient protein knockdown. All cells were loaded in serum-free culture medium for 45 min with the ratiometric Ca^2+ dye Fura-2-acetoxymethylester (5 μmol/L; TEFLABS, Austin, Tex.) reconstituted in 20% wiv pluronic acid in DMSO (Invitrogen, Carlsbad, Calif.). Cells were rinsed with serum-free medium and allowed to rest in 7% serum-containing medium for 45 min at 37° C. The glass-bottom dishes were placed in an environmental chamber mounted on an inverted microscope. Cells were allowed to equilibrate in the chamber for 15 min before calcium images were collected. Following equilibration, recordings were obtained with an Olympus Disk Spinning Unit (DSU) fluorescent imaging microscope where cells were alternately excited at 340 and 380 nm using an x-cite illumination light source. Emitted light was collected at >520 nm. Images were digitized online using Slidebook 4.2 software (Intelligent Imaging Innovations, Denver, Colo.), and 340:380 nm ratios were obtained every 15 seconds. Following a 5 minute baseline recording every 15 seconds, BK was applied to the cells and imaging continued every 15 seconds for 30 or 60 minutes. In a subset of experiments, BK antagonists, HOE-140 and Bradyzide were applied to the cells. These experiments were repeated at least three times and data were pooled for statistical analysis.
Glioma cells respond to environmental clues as they invade the brain. It has been previously shown that the exposure of glioma cells to certain neuroligands induces increase in intracellular calcium concentrations. In this series of experiments, we investigated Ca^2+-responses in cultured D54-MG glioma cells, after addition of acetylcholine (ACh), ATP or BK. Glioma cells were loaded with the ratiometric Ca^2+-dye FURA2-AM, and imaged over 30 min.

In test [1] the test system is MMP gelatinase activity of D54 MG cells. Put plainly: in-situ zymography of gelatinolytic MMP activity (DQ gelatin). The class given is cell-based, human. The following applies: BK plus B2R antagonist. How it is done: To assess gelatinolytic MMP activity we used in situ zymography, as described previously (Deshane J et al, 2003). Briefly, after cell nuclei were labeled with Hoechst dye, fluorescein isothiocyanate-labeled DQ gelatin with BK+/−antagonists (Molecular Probes, Eugene, Oreg.) was applied overnight on the coverslips plated with D54 MG cells. Coverslips where drugs were omitted were processed in parallel and used as controls. At the end of the incubation period, cells were photographed by fluorescence microscopy with a Zeiss Axiovert 200 M microscope using a 20× objective. Quantification of fluorescent staining intensity after background subtraction was done using Slidebook 4.2 software (Intelligent Imaging Innovations, Denver, Colo.). Experiments were repeated three times.
To investigate the hypothesis that BK promotes glioma migration in vitro, we used Transwell migration assay which conveniently permit examination of cell migration across a membrane barrier with 8 μm pores towards vitronectin, a chemo-attractant extracellular matrix protein. This frequently used assay allows a quantitative study of drug effects with regards to drugs acting as motogens or as chemo-attractants. D54-MG-GFP glioma cells were allowed to migrate for 5 h in the presence/absence of neuroligands. […] Next, we tested glioma cell migration in various BK concentrations. […]

Procedure for D54-MG-GFP cells: Time-lapse studies were performed using a stably transfected daughter cell line from D54-MG cells that express EGFP, previously generated in the lab (Habela et al., 2009) and U251-EGFP cell line to visualize cells as they migrate. Increased motility was tested using an Ibidi chemotaxis chamber that is commercially available from Ibidi Scientific (Ibidi GmbH, Martinsried, Germany), and which has been used in previous studies (Kronlage et al., 2010; Fabian et al., 2010) with D54-EGFP MG cells seeded. Liquid chemical gradients were established in the μ-channel of the μ-chamber as follows: the dye Patent Blue V Blue Sodium Salt (1 mg/ml in medium) was mixed with equivolume of medium+/−1 mM stock of BK+/−1 mM stocks of HOE-140 or BZ; half of the volume was loaded in the well at one side of the μ-channel, and the identical volume was then aspirated from the well on the other side of the μ-channel. This created concentration gradient easily visualized by the dye. 12-15 different positions along the concentration gradient were imaged every 5 minutes over 5 hours period on a Zeiss Axiovert 200M system equipped with a Zeiss micro-incubation chamber that maintains cells at constant temperature (37° C.) and 95%/5% CO2/O2 for extended periods of time. We obtained images from different sections using 20× objective and FITC filter, along with DIC images. 500× neutral density filters and capture images using Axiovision software and a digital Axiocam HR 1 megapixel camera in 2*2 binning mode was used. Data was analyzed using the imaging tools provided by National Institutes of Health Image J and Tracking, and Chemotaxis and Migration Tool plugins (Jacobelli et al., 2009; Coller et al., 2009; Kronlage et al., 2010; Fabian et al., 2010) by randomly selecting 15 cells for each field of view. Cells treated with BK+/−antagonists were compared with controls where only dye was added. These experiments were repeated in triplicates.
As calcium dynamics are often correlated with cell motility time-lapse studies were performed using a stably transfected daughter cell line from D54-MG cells that expresses GFP to visualize cells as they migrate (FIG. 3A). Increased motility was tested in μ-slides in which a BK concentration gradient can be maintained.

For `CN(C)CCN(C)CCNC(=O)[C@@H]1CCCN1S(=O)(=O)c1ccc(NNC(=S)NC(c2ccccc2)c2ccccc2)c([N+](=O)[O-])c1` [Bradyzide], in the test on D54-MG-GFP cells, the “cells moved towards increasing BK concentration” value was 6/15 and the directionality of movement result was “failed to show any directionality of movement”. At B2R, the “cells responded / cells imaged” value was 156/300 and the “average peak of Ca2+ response” value was 0.15±0.02. In test [1], the “MMP activity (fluorescence of DQ gelatin)” value was “reduction of the fluorescence back to control levels”.
For `N=C(N)NCCCC(NC(=O)[C@H](N)CCCNC(=N)N)C(=O)N1CCC[C@H]1C(=O)N1C[C@H](O)C[C@H]1C(=O)NCC(=O)N[C@@H](Cc1cccs1)C(=O)N[C@@H](CO)C(=O)N1Cc2ccccc2C[C@@H]1C(=O)N1C2CCCCC2C[C@H]1C(=O)N[C@H](CCCNC(=N)N)C(=O)O` (stereo partly drawn) [HOE-140, D-Arg-[Hyp^3, Thi^5, D-Tic^7, Oic^8]bradykinin] the same measures were 8/15, “failed to show any directionality of movement”, 22/162, 0.15±0.01 and “reduction of the fluorescence back to control levels”.
